Results as given in US11186613B2, “Solid-phase support comprising IgG-binding peptide, and method for separating IgG” (Kagoshima University, priority 2016, dated 2021).
pKd: −log10 of the molar value. Where two headings read alike, the source gives them in different places. Bridges are numbered along the chain shown (N, C = ends). Primed or numbered codes have the meaning given here. Where no end group is shown, it is not given here. The star is where a group is joined. Biotin = O=C1N[C@H]2[C@H](CS[C@H]2CCCCC(=O)*)N1; Fmoc = O=C(OCC1c2ccccc2-c2ccccc21)*; PEG4′ = not defined here

Assays:
IgG = assay: Affinity analysis of IgG-binding peptides by surface plasmon resonance (BIAcore T200), IgG immobilized on sensor chip; details: for Kd / ka / kd: SPR; for ka / kd: peptide 10 nM to 2 μM, HBS-EP buffer pH 7.0
Procedure: Affinity analysis of the purified IgG-binding peptide was carried out according to the following method. Equal amounts of 0.4 M 1-ethyl-3-(3-dimethylaminopropyl)-carbodiimide (EDC) and 0.1 M sulfo-N-hydroxysuccinimide (sulfo-NHS) were mixed and injected onto a CMS sensor chip, which was set in BIAcoreT200 (GE healthcare), at a flow rate of […] for 7 min to activate the sensor chip, and then the IgG was immobilized on the sensor chip under conditions of pH 4.0 (10 mM Na acetate) so as to give an immobilized amount of 4000 to 5000 in RU value. The binding reaction was monitored by injecting the peptide in a concentration from 10 nM to 2 μM at a flow rate of […] for 180 sec while using an HBS-EP buffer (0.01 M HEPES, 0.15 M NaCl, 0.005% TWEEN 20, 3 mM EDTA, pH 7.0), and then the dissociation reaction was measured by washing with the buffer for 600 sec. Binding parameters were analyzed using BlAevalution T100 software.

[1] = test system: human-derived serum γ-globulin; assay: Competitive elution with peptide from peptide-immobilized column, SDS-PAGE; details: 2.5 mL of 0.4 mg/mL peptide solution; bands around 25 kDa and 50 kDa on SDS-PAGE
Procedure: FIG. 2 illustrates results of SDS-PAGE of fractions fractionated in 0.5 mL that are obtained by eluting proteins with citric acid or the IgG-binding peptide from the column with immobilized peptide prepared in Example 3. The proteins were detected by CBB staining.
To the column prepared by the same method as in Example 3, 1 mg of human-derived serum γ-globulin was fed to adsorb the globulin thereto. The column was washed with the adsorption solution, and then 2.5 mL of a 0.4 mg/mL solution of Peptide a prepared in Example 2 dissolved in the adsorption solution was fed to the column. Each fraction fractionated in 0.5 mL was subjected to SDS-PAGE under reductive conditions in accordance with an ordinary method. Proteins were detected by CBB staining. For comparison, similar operations were carried out also for citric acid elution.

[2] = test system: human serum-derived γ-globulin; assay: Evaluation of alkali resistance: DBC after repeated 0.1 M sodium hydroxide treatment; format: physicochemical; details: five 0.1 M sodium hydroxide treatments
Procedure: FIG. 4 illustrates measurement results of DBC of an IgG-binding peptide cross-linked via a linker, prepared in Example 2, and an IgG-binding peptide cross-linked by disulfide, prepared in Comparative Example 1, both of which were treated with sodium hydroxide.
To a 1-mg peptide-immobilized 1-mL column prepared by the same method as in Example 3, 5 mL of 0.1 M sodium hydroxide solution was fed. The column was then washed with the adsorption solution and DBC was measured at a flow rate of 1 mL/min as in Example 5. Subsequently, a cycle of the treatment with the sodium hydroxide solution and the DBC measurement was repeated five times to evaluate the alkali resistance. The variation rate of DBC was determined based on the DBC before the sodium hydroxide treatment as 100%.
As Comparative Example 1, a column with 1 mg of a peptide cross-linked by a disulfide bond immobilized thereon was prepared, and the alkali resistance evaluation was carried out as in Example 5.

[3] = test system: human serum-derived γ-globulin; assay: Separation of human serum-derived γ-globulin on peptide-immobilized column, acidic elution; details: 1 mg peptide on NHS-activated 1-mL column; elution 20 mM citric acid pH 2.5
Procedure: FIG. 1 illustrates a result of a case where human serum-derived γ-globulin (Wako) was adsorbed to a column with immobilized peptide prepared in Example 3 and eluted with an acidic elution solution (20 mM citric acid, pH 2.5). The horizontal axis represents the volume of the elution liquid and the vertical axis represents the […] concentration measured by absorbance at 280 nm.
A dichloroacetone-cross-linked peptide was immobilized to an NHS-activated prepacked column (GE Healthcare) to carry out various evaluations to assess whether the dichloroacetone-cross-linked peptide can be used as an affinity ligand for human antibody purification.
The peptide-immobilized column was prepared by the following procedures. A syringe was used to feed a solution.
To a 1-mL capacity NHS-activated prepacked column, 5 mL of 1 mM hydrochloric acid was fed to remove an isopropanol solution in the column. […]
The prepared peptide-immobilized column was connected to a liquid chromatography system AKTAexplore (GE Healthcare) and equilibrated with the adsorption solution. […] The elution of proteins from the column was detected by absorbance at 280 nm. […]

[4] = 1:1 binding model, read-out: KD (nM) 1:1 binding
[5] = equilibrium value, read-out: KD (nM) Equilibrium value

| Substance | Kd (IgG; [4]) [nM] | Kd (IgG; [5]) [nM] | ka (IgG) | kd (IgG) | pKd (IgG; measured as in Example 1, read-out: Kd (affinity for IgG)) | elution of adsorbed γ-globulin by peptide solution [1] | alkali resistance (change in DBC by sodium hydroxide treatments) [2] | usability as ligand for an affinity column (adsorption and acid elution of γ-globulin) [3] |
| --- | --- | --- | --- | --- | --- | --- | --- | --- |
| DCAYH(Xaa1)GELVWCT (SEQ ID NO:1, wherein Xaa1 was arginine and the C-terminus was amidated) ({Biotin-PEG4′}-DCAYHRGELVWCT-NH2; disulfide 2-12 (inferred)) [SEQ ID NO: 1, wherein Xaa1 is R] | 54 | 64.5 | 4.57E+05 | 0.0248 |  |  |  |  |
| Fmoc-HN-PEG4-GPDCAYH(Xaa1)GELVWCTFH (SEQ ID NO:2, wherein Xaa1 was arginine and the C-terminus was amidated) ({Fmoc-PEG4′}-GPDCAYHRGELVWCTFH-NH2; cysteine pairing not given here) [Peptide b] |  |  |  |  | 6.00 |  |  |  |
| GPDCAYH(Xaa1)GELVWCTFH (SEQ ID NO:2, wherein Xaa1 was acetylated lysine, and the C-terminus was amidated) (GPDCAYHXGELVWCTFH; Xaa1=acetyl-lysine; C-terminal amide; (8)..(8) Xaa is arginine, lysine, leucine, asparagine, or derivative thereof) [SEQ ID NO: 2, wherein Xaa1 is K (Acetyl)] | 2700 | 2800 | 4.4E+05 | 0.12 |  |  |  |  |
| GPDCAYH(Xaa1)GELVWCTFH (SEQ ID NO:2, wherein Xaa1 was arginine and the C-terminus was amidated) (GPDCAYHRGELVWCTFH-NH2; not fully specified (N-terminus, bridges); printed as GPDCAYH(Xaa1)GELVWCTFH; cysteine pairing not given here) [SEQ ID NO: 2, wherein Xaa1 is R] | 9.1 | 10 | 1.57E+06 | 0.0144 |  |  |  |  |
| GPDCAYH(Xaa1)GELVWCTFH (SEQ ID NO:2, wherein Xaa1 was arginine and the C-terminus was amidated) ({Biotin-PEG4′}-GPDCAYHRGELVWCTFH-NH2; bridge 4-14; not fully specified (bridges); printed as GPDCAYH(Xaa1)GELVWCTFH) [Peptide a, N-terminally PEG4-modified, C-terminally amidated; cysteine sulfide groups connected via linker from 1,3-dichloro-2-propanone (linker drawing 11)] |  |  |  |  |  | can be used as a means for elution | no decrease in DBC | can be used as a ligand for an affinity column |
| GPDCAYH(Xaa1)GELVWCTFH (SEQ ID NO:2, wherein Xaa1 was leucine, and the C-terminus was amidated) ({Biotin-PEG4′}-GPDCAYHLGELVWCTFH-NH2; disulfide 4-14 (inferred)) [SEQ ID NO: 2, wherein Xaa1 is L] | 8.1 |  | 1.7E+05 | 0.014 |  |  |  |  |
| GPDCAYH(Xaa1)GELVWCTFH (SEQ ID NO:2, wherein Xaa1 was lysine, and the C-terminus was amidated) (GPDCAYHXGELVWCTFH; Xaa1=K; C-terminal amide; (8)..(8) Xaa is arginine, lysine, leucine, asparagine, or derivative thereof) [SEQ ID NO: 2, wherein Xaa1 is K] | 156 | 131 | 1.25E+06 | 0.195 |  |  |  |  |
| GPRCAYH(Xaa1)GELVWCSFH (SEQ ID NO:4, wherein Xaa1 was arginine and the C-terminus was amidated) (GPRCAYHRGELVWCSFH-NH2; not fully specified (N-terminus, bridges); cysteine pairing not given here) [SEQ ID NO: 4, wherein Xaa1 is R] | 42 | 56 | 8.40E+05 | 0.0353 |  |  |  |  |
